Like-named read-outs stand apart in the source and are kept apart here.

For orientation: IC50 means the concentration that gives 50% inhibition.

In the experiment the target is HIV-1 RT wild-type enzyme (Human immunodeficiency virus type 1 group M subtype B (isolate HXB2) (HIV-1), UniProt P04585). The experiment in a line: HIV-1 reverse transcriptase inhibitory activity (RT polymerase assay). The class given is biochemical. On the procedure:
Determination of HIV-1 Reverse Transcriptase Inhibitory Activity
The heterodimeric nucleic acid substrate used in the HIV-1 RT polymerase reactions was generated by annealing the DNA primer, biotinylated pD500 (Sigma Aldrich, USA, 5′-biotin-ttg aaa tga ctg cgg tac ggc-3′), SEQ ID NO. 1 to the nucleotide RNA template t500 (derived from hepatitis C virus [HCV] sequence, IBA, Germany, 5′-[…]-3′), SEQ ID NO 2). […] The mixture was then preincubated on an orbital shaker for 30 min at room temperature in microtiter plates (Costar 3365, Corning, USA). A polymerization reaction was initiated by the addition of RNA template/pD500 DNA primer hybrid (16.6 nM final of RNA/DNA hybrid) and dNTPs (2 μM dATP, dGTP, dCTP and 66.6 nM Ru-dUTP (Meso Scale Discovery, USA)). Plate was sealed and incubated for 5-10 min at room temperature on an orbital shaker. Plate was then incubated for 90 min at 37° C. and reactions quenched with 60 μl quenching buffer (50 mM EDTA, 0.7% BSA, 0.7% Tween-20, 0.017% sodium azide in PBS). The resulting solution was incubated at room temperature for an additional 5 min and then 50 μL was transferred to pre-blocked Avidin plates (L15AA, Meso Scale Discovery). Each well of Avidin plate was blocked for 1 h at room temperature with 100 μL 5% BSA in PBS. Blocking solution was removed by tapping vigorously on filter paper to remove all excess liquid. Reaction on pre-blocked avidin plate proceeded for 60 min at room temperature and then contents removed by tapping vigorously on filter paper to remove all excess liquid. After washing plate 3 times with 150 μL 1×PBS and blotting dry between cycles, 150 μL 1× Read Buffer T (4× Read Buffer T, Meso Scale Discovery) was added and incubated for 5 min at room temperature before counting on a Sector Imager […] (Meso Scale Discovery). Titration curves and IC50 values were calculated using a four parameter logisitc fit according to standard procedures. Briefly, % Inhibition=100×((sample raw value)−(mean value of the low control or 0% inhibition))/((mean value of wells representing 100% inhbition)−(mean value of 0% inhbition)). In this assay, low control wells contain DMSO (0% inhbition) and 100% inhibition wells contain 1 μM efavirenz.

Setting [1] is: HIV-1 RT wild-type enzyme 83 pM, RNA-dependent DNA polymerase activity, read-out: IC50.

Turning to `N#Cc1cc(Cl)cc(Oc2c(C(F)(F)F)ncn(Cc3n[nH]c(=O)c4cccnc34)c2=O)c1` [Example 1, 3-chloro-5-((6-oxo-1-((5-oxo-5,6-dihydropyrido[2,3-d]pyridazin-8-yl)methyl)-4-(trifluoromethyl)-1,6-dihydropyrimidin-5-yl)oxy)benzonitrile], the IC50 under setting [1] worked out at 191 nM.

For `N#Cc1cc(Cl)cc(Oc2c(C(F)(F)F)ncn(Cc3cnc(O)cn3)c2=O)c1` [Example 2, 3-chloro-5-((1-((5-hydroxypyrazin-2-yl)methyl)-6-oxo-4-(trifluoromethyl)-1,6-dihydropyrimidin-5-yl)oxy)benzonitrile], the IC50 under setting [1] is 118 nM.

`Cn1cc(Cn2cnc(C(F)(F)F)c(Oc3cc(Cl)cc(C#N)c3)c2=O)ncc1=O` [Example 3, 3-chloro-5-((1-((4-methyl-5-oxo-4,5-dihydropyrazin-2-yl)methyl)-6-oxo-4-(trifluoromethyl)-1,6-dihydropyrimidin-5-yl)oxy)benzonitrile]: the 50% inhibitory concentration (IC50) under setting [1] stood at 33 nM.

`N#Cc1cc(Cl)cc(Oc2c(C(F)(F)F)ncn(Cc3ncc[nH]c3=O)c2=O)c1` [Example 4, 3-chloro-5-((6-oxo-1-((3-oxo-3,4-dihydropyrazin-2-yl)methyl)-4-(trifluoromethyl)-1,6-dihydropyrimidin-5-yl)oxy)benzonitrile]: the IC50 under setting [1] came to 124 nM.

`N#Cc1cc(Cl)cc(Oc2c(C(F)(F)F)ncn(Cc3ccn[nH]c3=O)c2=O)c1` [Example 5, 3-chloro-5-((6-oxo-1-((3-oxo-2,3-dihydropyridazin-4-yl)methyl)-4-(trifluoromethyl)-1,6-dihydropyrimidin-5-yl)oxy)benzonitrile]: the IC50 under setting [1] came out at 6 nM.

As for `[2H]C([2H])(c1ccc(=O)[nH]n1)n1cnc(C(F)(F)F)c(Oc2cc(Cl)cc(C#N)c2)c1=O` [Example 8], the IC50 under setting [1] is 9 nM.

For `N#Cc1cc(Cl)cc(Oc2c(C(F)(F)F)ncn(Cc3cc(C4CC(F)(F)C4)c(=O)[nH]n3)c2=O)c1` [Example 9, 3-chloro-5-((1-((5-(3,3-difluorocyclobutyl)-6-oxo-1,6-dihydropyridazin-3-yl)methyl)-6-oxo-4-(trifluoromethyl)-1,6-dihydropyrimidin-5-yl)oxy)benzonitrile], under setting [1], the concentration for half-maximal inhibition (IC50) stood at 109 nM.

For the compound `CC(C)c1cc(Cn2cnc(C(F)(F)F)c(Oc3cc(Cl)cc(C#N)c3)c2=O)n[nH]c1=O` [Example 10, 3-chloro-5-((1-((5-isopropyl-6-oxo-1,6-dihydropyridazin-3-yl)methyl)-6-oxo-4-(trifluoromethyl)-1,6-dihydropyrimidin-5-yl)oxy)benzonitrile], under setting [1], the half-maximal inhibitory concentration (IC50) was found to be 7 nM.

Consider `CC(C)(O)c1cc(Cn2cnc(C(F)(F)F)c(Oc3cc(Cl)cc(C#N)c3)c2=O)n[nH]c1=O` [Example 11, 3-chloro-5-((1-((5-(2-hydroxypropan-2-yl)-6-oxo-1,6-dihydropyridazin-3-yl)methyl)-6-oxo-4-(trifluoromethyl)-1,6-dihydropyrimidin-5-yl)oxy)benzonitrile], for which, under setting [1], the IC50 came to 124 nM.

The compound `N#Cc1cc(Cl)cc(Oc2c(C(F)(F)F)ncn(Cc3cc(CO)c(=O)[nH]n3)c2=O)c1` [Example 12, 3-chloro-5-((1-((5-(hydroxymethyl)-6-oxo-1,6-dihydropyridazin-3-yl)methyl)-6-oxo-4-(trifluoromethyl)-1,6-dihydropyrimidin-5-yl)oxy)benzonitrile] came in with a half-maximal inhibitory concentration (IC50) of 32 nM.

On to `Cc1ncn(Cc2ccc(=O)[nH]n2)c(=O)c1Oc1cc(Cl)cc(C#N)c1` [Example 13, 3-chloro-5-((4-methyl-6-oxo-1-((6-oxo-1,6-dihydropyridazin-3-yl)methyl)-1,6-dihydropyrimidin-5-yl)oxy)benzonitrile], for which the IC50 under setting [1] worked out at 29 nM.

In the case of `CC(O)c1cc(Cn2cnc(C(F)(F)F)c(Oc3cc(Cl)cc(C#N)c3)c2=O)n[nH]c1=O` (stereo not shown) [Example 14, 3-chloro-5-((1-((5-(1-hydroxyethyl)-6-oxo-1,6-dihydropyridazin-3-yl)methyl)-6-oxo-4-(trifluoromethyl)-1,6-dihydropyrimidin-5-yl)oxy)benzonitrile], the half-maximal inhibitory concentration (IC50) under setting [1] was 109 nM.

As to `CC(F)c1cc(Cn2cnc(C(F)(F)F)c(Oc3cc(Cl)cc(C#N)c3)c2=O)n[nH]c1=O` (stereo not shown) [Example 15, 3-chloro-5-((1-((5-(1-fluoroethyl)-6-oxo-1,6-dihydropyridazin-3-yl)methyl)-6-oxo-4-(trifluoromethyl)-1,6-dihydropyrimidin-5-yl)oxy)benzonitrile], the IC50 under setting [1] was 13 nM.

As to `N#Cc1cc(Cl)cc(Oc2c(C(F)(F)F)ncn(Cc3cc(CF)c(=O)[nH]n3)c2=O)c1` [Example 16, 3-chloro-5-((1-((5-(fluoromethyl)-6-oxo-1,6-dihydropyridazin-3-yl)methyl)-6-oxo-4-(trifluoromethyl)-1,6-dihydropyrimidin-5-yl)oxy)benzonitrile], the IC50 under setting [1] amounted to 12 nM.

With `N#Cc1cc(Cl)cc(Oc2c(C(F)(F)F)ncn(Cc3cc(C(O)C4CC4)c(=O)[nH]n3)c2=O)c1` (stereo not shown) [Example 17, 3-chloro-5-((1-((5-(cyclopropyl(hydroxy)methyl)-6-oxo-1,6-dihydropyridazin-3-yl)methyl)-6-oxo-4-(trifluoromethyl)-1,6-dihydropyrimidin-5-yl)oxy)benzonitrile], the 50% inhibitory concentration (IC50) under setting [1] was 179 nM.

`N#Cc1cc(Cl)cc(Oc2c(C(F)(F)F)ncn(Cc3ccc(=O)[nH]n3)c2=O)c1Cl` [Example 18, 2,5-dichloro-3-((6-oxo-1-((6-oxo-1,6-dihydropyridazin-3-yl)methyl)-4-(trifluoromethyl)-1,6-dihydropyrimidin-5-yl)oxy)benzonitrile]: the IC50 under setting [1] worked out at 5 nM.

Take `N#Cc1cc(F)cc(Oc2c(C(F)(F)F)ncn(Cc3ccc(=O)[nH]n3)c2=O)c1` [Example 19, 3-fluoro-5-((6-oxo-1-((6-oxo-1,6-dihydropyridazin-3-yl)methyl)-4-(trifluoromethyl)-1,6-dihydropyrimidin-5-yl)oxy)benzonitrile]: under setting [1], the concentration for half-maximal inhibition (IC50) amounted to 31 nM.

On to `N#Cc1cc(Oc2c(C(F)(F)F)ncn(Cc3ccc(=O)[nH]n3)c2=O)cc(C(F)(F)F)c1` [Example 20, 3-((6-oxo-1-((6-oxo-1,6-dihydropyridazin-3-yl)methyl)-4-(trifluoromethyl)-1,6-dihydropyrimidin-5-yl)oxy)-5-(trifluoromethyl) benzonitrile], for which the half-inhibitory concentration (IC50) under setting [1] turned out to be 24 nM.

For the compound `O=c1ccc(Cn2cnc(C(F)(F)F)c(Oc3cc(Cl)cc(C(F)(F)F)c3)c2=O)n[nH]1` [Example 21, 6-((5-(3-chloro-5-(trifluoromethyl)phenoxy)-6-oxo-4-(trifluoromethyl)pyrimidin-1(6H)-yl)methyl)pyridazin-3(2H)-one], the half-inhibitory concentration (IC50) under setting [1] turned out to be 29 nM.

Consider `N#Cc1cc(Cl)cc(Oc2c(C(F)(F)F)ncn(Cc3cc(-c4ccccc4)c(=O)[nH]n3)c2=O)c1` [Example 22], for which the IC50 under setting [1] was found to be 3 nM.

Consider `Cn1nc(Cn2cnc(C(F)(F)F)c(Oc3cc(Cl)cc(C#N)c3)c2=O)cc(Br)c1=O` [Example 23], for which, under setting [1], the IC50 came out at 38 nM.

Consider `N#Cc1cc(Cl)cc(Oc2c(C(F)(F)F)ncn(Cc3cc(-c4ccc(OC(F)(F)F)cc4)c(=O)[nH]n3)c2=O)c1` [Example 24, 3-chloro-5-((6-oxo-1-((6-oxo-5-(4-(trifluoromethoxy)phenyl)-1,6-dihydropyridazin-3-yl)methyl)-4-(trifluoromethyl)-1,6-dihydropyrimidin-5-yl)oxy)benzonitrile], for which the concentration for half-maximal inhibition (IC50) under setting [1] stood at 24 nM.

Take `N#Cc1cc(Cl)cc(Oc2c(C(F)(F)F)ncn(Cc3cc(-c4ccccc4F)c(=O)[nH]n3)c2=O)c1` [Example 25, 3-chloro-5-((1-((5-(2-fluorophenyl)-6-oxo-1,6-dihydropyridazin-3-yl)methyl)-6-oxo-4-(trifluoromethyl)-1,6-dihydropyrimidin-5-yl)oxy)benzonitrile]: the IC50 under setting [1] was 9 nM.

On to `N#Cc1cc(Cl)cc(Oc2c(C(F)(F)F)ncn(Cc3cc(-c4cccc(F)c4)c(=O)[nH]n3)c2=O)c1` [Example 26, 3-chloro-5-((1-((5(3-fluorophenyl)-6-oxo-1,6-dihydropyridazin-3-yl)methyl)-6-oxo-4-(trifluoromethyl)-1,6-dihydropyrimidin-5-yl)oxy)benzonitrile], for which the IC50 under setting [1] was 5 nM.

In the case of `N#Cc1cc(Cl)cc(Oc2c(C(F)(F)F)ncn(Cc3cc(-c4cc(F)cc(Cl)c4)c(=O)[nH]n3)c2=O)c1` [Example 27, 3-chloro-5-((1-((5-(3-chloro-5-fluorophenyl)-6-oxo-1,6-dihydropyridazin-3-yl)methyl)-6-oxo-4-(trifluoromethyl)-1,6-dihydropyrimidin-5-yl)oxy)benzonitrile], under setting [1], the half-maximal inhibitory concentration (IC50) stood at 14 nM.

The values above are taken from patent US9718819B2 (Merck Sharp & Dohme Corp., priority 2012, dated 2017).
